Experiments:
[1] = DRUGMATRIX: Calcium Channel Type L, Benzothiazepine radioligand binding (ligand: [3H] Diltiazem); assay type: cell membranes, Rattus norvegicus, Wistar, Brain, Membrane; settings: Not Active = under 50% inhibition at 10 µM
[2] = molecular target: 5-hydroxytryptamine receptor 6 (Homo sapiens, UniProt P50406); assay type: cell membranes, HeLa, Membrane; settings: for Ki: read-out: Ki; on all read-outs here: in other assays of this panel Not Active means under 50% inhibition at 10 µM
[3] = molecular target: Melanocortin receptor 4 (Homo sapiens, UniProt P32245); assay type: cell membranes, Membrane; settings: hek293; further: in other assays of this panel Not Active means under 50% inhibition at 10 µM
[4] = molecular target: T1, Amine oxidase [flavin-containing] A (Homo sapiens, UniProt P21397); assay: DRUGMATRIX: Monoamine Oxidase MAO-A enzyme inhibition (substrate: Kynuramine); design: species or system BTI-TN-5B1-4; settings: bti-tn-5b1-4; Not Active = under 50% inhibition at 10 µM
T1 sequence (P21397 whole entry): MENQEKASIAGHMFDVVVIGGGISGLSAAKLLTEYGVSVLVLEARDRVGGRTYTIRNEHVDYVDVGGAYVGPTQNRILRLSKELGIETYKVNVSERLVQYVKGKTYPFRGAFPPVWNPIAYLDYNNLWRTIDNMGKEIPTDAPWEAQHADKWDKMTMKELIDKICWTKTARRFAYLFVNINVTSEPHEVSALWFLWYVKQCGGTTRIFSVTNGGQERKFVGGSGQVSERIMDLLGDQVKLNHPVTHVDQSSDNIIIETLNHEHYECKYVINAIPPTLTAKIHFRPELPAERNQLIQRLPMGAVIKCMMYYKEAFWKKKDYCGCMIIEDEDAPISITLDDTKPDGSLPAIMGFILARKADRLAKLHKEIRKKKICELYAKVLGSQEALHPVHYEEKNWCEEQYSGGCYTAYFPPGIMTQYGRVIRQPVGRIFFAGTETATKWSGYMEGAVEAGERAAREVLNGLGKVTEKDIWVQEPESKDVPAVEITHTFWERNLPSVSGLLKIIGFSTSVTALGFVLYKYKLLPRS

[5] = molecular target: T2, Angiotensin-converting enzyme (Oryctolagus cuniculus, UniProt P12822); assay type: tissue-based, Lung;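 further: enzymatic inhibition of angiotensin-converting enzyme measured with FAPGG as the substrate; in other assays of this panel Not Active means under 50% inhibition at 10 µM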
T2 sequence (P12822 whole entry): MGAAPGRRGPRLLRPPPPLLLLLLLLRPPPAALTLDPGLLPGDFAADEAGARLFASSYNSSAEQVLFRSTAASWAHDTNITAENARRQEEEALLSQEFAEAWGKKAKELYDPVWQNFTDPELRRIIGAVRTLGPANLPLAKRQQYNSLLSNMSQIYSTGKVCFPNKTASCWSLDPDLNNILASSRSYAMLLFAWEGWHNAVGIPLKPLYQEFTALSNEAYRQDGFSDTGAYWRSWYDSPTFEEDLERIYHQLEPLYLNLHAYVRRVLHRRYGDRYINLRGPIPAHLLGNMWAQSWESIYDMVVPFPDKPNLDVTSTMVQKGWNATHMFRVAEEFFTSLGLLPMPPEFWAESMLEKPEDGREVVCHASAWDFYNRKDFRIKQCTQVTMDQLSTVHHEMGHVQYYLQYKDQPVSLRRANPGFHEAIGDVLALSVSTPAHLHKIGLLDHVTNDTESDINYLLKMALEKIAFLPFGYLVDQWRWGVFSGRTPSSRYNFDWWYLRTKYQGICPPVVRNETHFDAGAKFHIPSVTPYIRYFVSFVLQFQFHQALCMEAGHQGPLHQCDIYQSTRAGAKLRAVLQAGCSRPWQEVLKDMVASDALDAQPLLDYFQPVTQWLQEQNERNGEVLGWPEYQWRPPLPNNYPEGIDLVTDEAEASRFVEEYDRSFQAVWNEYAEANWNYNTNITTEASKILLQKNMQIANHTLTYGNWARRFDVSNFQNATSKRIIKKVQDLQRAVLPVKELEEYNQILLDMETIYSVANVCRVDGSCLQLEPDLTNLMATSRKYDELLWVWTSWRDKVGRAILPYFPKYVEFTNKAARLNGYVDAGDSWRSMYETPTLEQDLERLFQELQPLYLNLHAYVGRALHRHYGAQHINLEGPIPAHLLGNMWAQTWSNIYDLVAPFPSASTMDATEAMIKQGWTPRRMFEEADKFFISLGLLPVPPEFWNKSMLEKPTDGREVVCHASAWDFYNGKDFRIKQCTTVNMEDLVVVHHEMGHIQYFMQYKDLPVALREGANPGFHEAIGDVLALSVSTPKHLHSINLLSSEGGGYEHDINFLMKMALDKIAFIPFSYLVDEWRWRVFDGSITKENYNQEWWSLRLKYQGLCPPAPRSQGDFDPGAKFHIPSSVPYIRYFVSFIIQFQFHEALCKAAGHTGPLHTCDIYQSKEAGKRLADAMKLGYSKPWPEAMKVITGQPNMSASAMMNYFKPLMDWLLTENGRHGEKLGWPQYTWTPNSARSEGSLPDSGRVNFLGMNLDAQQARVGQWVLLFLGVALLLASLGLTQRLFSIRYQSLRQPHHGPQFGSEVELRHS

[6] = molecular target: Tyrosine-protein kinase Lck (Homo sapiens, UniProt P06239); assay: DRUGMATRIX: Protein Tyrosine Kinase, LCK enzyme inhibition (substrate: Poly(Glu:Tyr)); assay type: cell-based, Insect cells; settings: insect cells; Not Active = under 50% inhibition at 10 µM
[7] = molecular target: Acetylcholinesterase (Homo sapiens, UniProt P22303); assay: DRUGMATRIX: Acetylcholinesterase enzyme inhibition (substrate: acetylthiocholine); assay type: cell-based, HEK293; settings: Not Active = under 50% inhibition at 10 µM
[8] = molecular target: T3, Glucocorticoid receptor (Homo sapiens, UniProt P04150); settings: hela s3; further: in other assays of this panel Not Active means under 50% inhibition at 10 µM
T3 sequence (P04150 whole entry): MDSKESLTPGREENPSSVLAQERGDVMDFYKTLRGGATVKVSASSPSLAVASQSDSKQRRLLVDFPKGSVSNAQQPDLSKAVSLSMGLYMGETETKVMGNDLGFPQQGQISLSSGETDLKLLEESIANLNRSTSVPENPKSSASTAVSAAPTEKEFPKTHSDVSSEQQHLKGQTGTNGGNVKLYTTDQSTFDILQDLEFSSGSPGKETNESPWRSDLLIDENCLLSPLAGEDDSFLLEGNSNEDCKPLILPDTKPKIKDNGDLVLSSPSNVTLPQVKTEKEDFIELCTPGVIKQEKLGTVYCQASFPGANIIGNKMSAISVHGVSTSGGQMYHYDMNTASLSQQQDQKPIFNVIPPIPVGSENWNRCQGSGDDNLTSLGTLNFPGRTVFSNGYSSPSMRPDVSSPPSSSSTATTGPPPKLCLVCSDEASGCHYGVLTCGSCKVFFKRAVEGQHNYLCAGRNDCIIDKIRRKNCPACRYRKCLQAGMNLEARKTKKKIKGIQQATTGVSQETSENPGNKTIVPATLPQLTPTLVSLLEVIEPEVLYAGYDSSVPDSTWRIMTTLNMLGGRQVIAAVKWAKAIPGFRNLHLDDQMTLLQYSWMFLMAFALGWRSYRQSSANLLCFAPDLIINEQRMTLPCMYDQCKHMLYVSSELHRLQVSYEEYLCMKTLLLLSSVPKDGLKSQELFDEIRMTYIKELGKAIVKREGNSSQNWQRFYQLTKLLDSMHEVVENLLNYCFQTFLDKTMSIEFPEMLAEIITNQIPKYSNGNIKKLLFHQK

Chain of Melanocortin receptor 4 (P32245 whole entry): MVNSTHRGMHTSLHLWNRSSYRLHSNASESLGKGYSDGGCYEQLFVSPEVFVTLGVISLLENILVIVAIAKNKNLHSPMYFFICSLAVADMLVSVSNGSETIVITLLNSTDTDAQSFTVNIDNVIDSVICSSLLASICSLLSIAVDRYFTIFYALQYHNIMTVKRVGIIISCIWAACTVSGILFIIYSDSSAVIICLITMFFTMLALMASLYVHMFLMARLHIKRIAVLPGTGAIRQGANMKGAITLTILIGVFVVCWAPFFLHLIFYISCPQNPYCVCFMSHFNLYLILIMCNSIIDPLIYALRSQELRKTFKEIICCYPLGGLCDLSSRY
Chain of Tyrosine-protein kinase Lck (P06239 whole entry): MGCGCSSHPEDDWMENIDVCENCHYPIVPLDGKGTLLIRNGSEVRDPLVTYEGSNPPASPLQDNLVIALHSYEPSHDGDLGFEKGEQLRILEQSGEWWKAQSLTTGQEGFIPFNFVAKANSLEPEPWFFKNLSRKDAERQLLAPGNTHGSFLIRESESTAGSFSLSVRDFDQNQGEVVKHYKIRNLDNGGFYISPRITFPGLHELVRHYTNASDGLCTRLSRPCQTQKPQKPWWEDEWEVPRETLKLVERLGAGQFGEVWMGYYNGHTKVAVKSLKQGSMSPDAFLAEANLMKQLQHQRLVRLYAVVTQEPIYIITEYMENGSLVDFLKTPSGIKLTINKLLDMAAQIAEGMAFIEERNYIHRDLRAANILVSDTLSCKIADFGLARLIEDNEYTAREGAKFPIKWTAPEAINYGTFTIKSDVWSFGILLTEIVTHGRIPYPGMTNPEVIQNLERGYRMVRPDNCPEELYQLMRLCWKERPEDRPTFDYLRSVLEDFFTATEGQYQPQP
Chain of 5-hydroxytryptamine receptor 6 (P50406 whole entry): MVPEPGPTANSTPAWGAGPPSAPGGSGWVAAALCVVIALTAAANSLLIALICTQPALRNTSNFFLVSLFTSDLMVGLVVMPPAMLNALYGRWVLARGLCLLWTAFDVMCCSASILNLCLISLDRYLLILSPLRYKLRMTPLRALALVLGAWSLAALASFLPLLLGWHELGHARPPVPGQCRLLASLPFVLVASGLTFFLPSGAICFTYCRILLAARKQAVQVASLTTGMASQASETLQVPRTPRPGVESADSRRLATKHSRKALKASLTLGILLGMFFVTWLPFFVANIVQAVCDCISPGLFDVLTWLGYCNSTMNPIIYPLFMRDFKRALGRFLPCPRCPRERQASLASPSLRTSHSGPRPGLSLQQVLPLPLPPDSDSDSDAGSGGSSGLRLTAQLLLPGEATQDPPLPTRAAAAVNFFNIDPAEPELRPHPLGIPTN
Chain of Acetylcholinesterase (P22303 whole entry): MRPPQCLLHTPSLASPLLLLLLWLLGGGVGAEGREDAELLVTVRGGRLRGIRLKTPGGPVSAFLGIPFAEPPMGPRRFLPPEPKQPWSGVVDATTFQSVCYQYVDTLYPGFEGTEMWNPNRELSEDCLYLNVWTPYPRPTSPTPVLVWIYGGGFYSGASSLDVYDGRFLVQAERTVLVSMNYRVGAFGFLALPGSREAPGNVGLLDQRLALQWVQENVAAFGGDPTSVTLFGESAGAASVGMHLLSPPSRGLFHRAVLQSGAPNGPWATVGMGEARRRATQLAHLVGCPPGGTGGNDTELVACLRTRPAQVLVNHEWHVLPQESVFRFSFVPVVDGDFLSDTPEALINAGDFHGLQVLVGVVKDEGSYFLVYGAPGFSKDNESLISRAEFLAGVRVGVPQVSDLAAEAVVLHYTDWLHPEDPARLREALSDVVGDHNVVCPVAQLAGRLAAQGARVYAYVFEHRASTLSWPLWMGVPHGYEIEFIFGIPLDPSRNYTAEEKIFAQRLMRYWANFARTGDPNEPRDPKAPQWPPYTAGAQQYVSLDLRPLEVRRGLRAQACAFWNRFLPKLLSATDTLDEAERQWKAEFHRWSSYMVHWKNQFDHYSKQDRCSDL

| SMILES | IC50 [1] | Ki [1] | IC50 ([2]; hela) | IC50 [3] | IC50 [4] | IC50 [5] | IC50 [6] | IC50 ([7]; hek293) | IC50 [8] | IC50 ([1]; read-out: IC50) [nM] | Ki ([1]; read-out: Ki) [nM] | IC50 ([2]; read-out: IC50) [nM] | Ki [2] [nM] | IC50 ([7]; read-out: IC50) [nM] |
| --- | --- | --- | --- | --- | --- | --- | --- | --- | --- | --- | --- | --- | --- | --- |
| N[C@H](CSC(=S)NCc1ccccc1)C(=O)O | Not Active | Not Active | Not Active | Not Active | Not Active | Not Active | Not Active | Not Active | Not Active | – | – | – | – | – |
| Cc1cc(C)nc(NS(=O)(=O)c2ccc(N)cc2)n1 [SULFAMETHAZINE] | Not Active | Not Active | Not Active | Not Active | Not Active | Not Active | Not Active | Not Active | Not Active | – | – | – | – | – |
| Cc1cccc(Nc2ccncc2S(=O)(=O)NC(=O)NC(C)C)c1 [TORSEMIDE] | Not Active | Not Active | Not Active | Not Active | Not Active | Not Active | Not Active | Not Active | Not Active | – | – | – | – | – |
| O=C1CCC(N2C(=O)c3ccccc3C2=O)C(=O)N1 (stereo unspecified) [THALIDOMIDE] | Not Active | Not Active | Not Active | Not Active | Not Active | Not Active | Not Active | Not Active | Not Active | – | – | – | – | – |
| CC(C)CC(N(C)C)C1(c2ccc(Cl)cc2)CCC1 (stereo unspecified) [SIBUTRAMINE] | – | – | Not Active | Not Active | Not Active | Not Active | Not Active | Not Active | Not Active | 809 | 719 | – | – | – |
| [H]/N=C(/N)N[C@H]1[C@H](O)[C@@H](O)[C@H](O[C@@H]2O[C@@H](C)[C@](O)(C=O)[C@H]2O[C@@H]2O[C@@H](CO)[C@H](O)[C@@H](O)[C@@H]2NC)[C@@H](N/C(N)=N\[H])[C@@H]1O [STREPTOMYCIN] | Not Active | Not Active | Not Active | Not Active | Not Active | Not Active | Not Active | Not Active | Not Active | – | – | – | – | – |
| CC(C)C[C@H](NC(=O)[C@@H](O)[C@H](N)Cc1ccccc1)C(=O)O [UBENIMEX] | Not Active | Not Active | Not Active | Not Active | Not Active | Not Active | Not Active | Not Active | Not Active | – | – | – | – | – |
| CC(C)NCC(O)COc1cccc2ccccc12 (stereo unspecified) [PROPRANOLOL] | – | – | – | Not Active | Not Active | Not Active | Not Active | Not Active | – | – | – | 3060 | 1420 | – |
| Cc1onc(-c2ccccc2)c1-c1ccc(S(N)(=O)=O)cc1 [VALDECOXIB] | Not Active | Not Active | Not Active | Not Active | Not Active | Not Active | Not Active | Not Active | Not Active | – | – | – | – | – |
| CC[C@]1(O)C[C@@H]2CN(CCc3c([nH]c4ccccc34)[C@@](C(=O)OC)(c3cc4c(cc3OC)N(C)[C@H]3[C@@](O)(C(=O)OC)[C@H](OC(C)=O)[C@]5(CC)C=CCN6CC[C@]43[C@@H]65)C2)C1 [VINBLASTINE] | Not Active | Not Active | Not Active | Not Active | Not Active | Not Active | Not Active | Not Active | Not Active | – | – | – | – | – |
| CC/C(=C(/CC)c1ccc(O)cc1)c1ccc(O)cc1 [DIETHYLSTILBESTROL] | – | – | – | Not Active | Not Active | Not Active | Not Active | – | – | – | – | 12900 | 5990 | 25600 |
| C=CCN1CC[C@]23c4c5ccc(O)c4O[C@H]2C(=O)CC[C@@]3(O)[C@H]1C5 [NALOXONE] | – | – | Not Active | Not Active | Not Active | Not Active | Not Active | Not Active | – | – | – | – | – | – |
| Clc1ccc2c(c1)C(N1CCNCC1)=Nc1ccccc1O2 [AMOXAPINE] | – | – | – | Not Active | Not Active | Not Active | Not Active | Not Active | Not Active | – | – | – | – | – |
| CC(=O)CC(c1ccccc1)c1c(O)c2ccccc2oc1=O (stereo unspecified) [WARFARIN] | Not Active | Not Active | Not Active | Not Active | Not Active | Not Active | Not Active | Not Active | – | – | – | – | – | – |
| CC(C)(C)c1ccc(C(O)CCCN2CCC(C(O)(c3ccccc3)c3ccccc3)CC2)cc1 (stereo unspecified) [TERFENADINE] | – | – | – | Not Active | Not Active | Not Active | Not Active | Not Active | Not Active | 226 | 201 | – | – | – |
| C[C@@H](N)[C@H]1CC[C@H](C(=O)Nc2ccncc2)CC1 [Y-27632] | Not Active | Not Active | Not Active | Not Active | Not Active | Not Active | – | Not Active | Not Active | – | – | – | – | – |
| CN1CCC(=C2c3ccccc3C=Cc3ccccc32)CC1 [CYPROHEPTADINE] | – | – | – | Not Active | Not Active | Not Active | Not Active | Not Active | Not Active | – | – | 281 | 130 | – |
| COc1cc2c(c(OC)c1OC)-c1ccc(OC)c(=O)cc1[C@@H](NC(C)=O)CC2 [COLCHICINE] | – | – | Not Active | Not Active | Not Active | Not Active | Not Active | Not Active | Not Active | – | – | – | – | – |
